According to patent publication US20020025983A1, “Vitamin K and essential fatty acids” (priority 2000, published 2002):

Columns and labels:
women with osteoporosis = conditions: 45 mg/day; cited from earlier work
[1] = system: person with atopic dermatitis and with mild premenstrual syndrome; assay: Case report: person with atopic dermatitis and mild premenstrual syndrome given EPO, vitamin K1, then EPO again; assay type: in vivo, human; conditions: vitamin K1 supplements alone
Description: A person with atopic dermatitis and with mild premenstrual syndrome was recommended to take 3 g/day of evening primrose oil (EPO). EPO is a widely used nutritional supplement for these problems. It contains about 70% of linoleic acid, but more importantly contains 8-12% of GLA which can by-pass a block in the conversion of linoleic acid to GLA which can occur in many situations, including atopic dermatitis, stress and menstrual disorders. […] As an experiment they were then cautiously given EPO again.

[2] = system: person with severe menstrual cramps and mild premenstrual syndrome; assay: Case report: person with severe menstrual cramps and mild premenstrual syndrome given EPO and fish oil, vitamin K1, then EPO and fish oil again; assay type: in vivo, human; conditions: vitamin K1 supplement 2 mg (2000 μg) per day for a month, alone
Procedure: A second person presented with severe menstrual cramps and mild premenstrual syndrome. […] They therefore took 2 mg (2000 μg) per day of a vitamin K1 supplement for a month which also had no effect on their menstrual problems.

In the case of menaquinones [vitamin K2], the “progressive loss of bone mineral density” value (women with osteoporosis) is given as “slow down but not prevent” and the “risk of bone fractures” value (women with osteoporosis) is given as “could reduce the risk of bone fractures”.
With `CC1=C(C/C=C(\C)CCC[C@H](C)CCC[C@H](C)CCCC(C)C)C(=O)c2ccccc2C1=O` [vitamin K1, phylloquinone] the “improvement of skin or premenstrual syndrome” value [1] was “did not improve”, the “vitamin K deficiency” value [1] was “corrected” and the “effect on menstrual problems” value [2] was “no effect”.
